Where two headings read alike, the source gives them in different places.
Assays:
Format in all cases: cell-based
human TNF-α = experiment: Inhibition of TNF-α production by stimulated human peripheral blood leukocytes in vitro (ELISA); conditions: Homo sapiens, Leukocyte, PBL, read-out: Percentage of inhibition of TNF-α production; for inhibition at 10 µM: compound 10 μM; for inhibition at 50 µM: compound 50 μM
How it was run: (§1)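 Human PBL from healthy donors preincubated 2 h at 37 °C with compound, then stimulated overnight with 2 μg/mL LPS, 1 μg/mL PMA or 120 μg/mL zymosan. Supernatant cytokines measured by sandwich ELISA. % inhibition is relative to stimulated, untreated cells.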

human IL-1β = experiment: Inhibition of IL-1β production by stimulated human peripheral blood leukocytes in vitro (ELISA); conditions: Homo sapiens, Leukocyte, PBL, read-out: Percentage of inhibition of IL-1β production; for inhibition at 10 µM: compound 10 μM; for inhibition at 50 µM: compound 50 μM
How it was run: as §1

human IL-6 = experiment: Inhibition of IL-6 production by stimulated human peripheral blood leukocytes in vitro (ELISA); conditions: Homo sapiens, Leukocyte, PBL, read-out: Percentage of inhibition of IL-6 production; for inhibition at 10 µM: compound 10 μM; for inhibition at 50 µM: compound 50 μM
How it was run: as §1

human IL-8 = experiment: Inhibition of IL-8 production by stimulated human peripheral blood leukocytes in vitro (ELISA); conditions: Homo sapiens, Leukocyte, PBL, read-out: Percentage of inhibition of IL-8 production; for inhibition at 10 µM: compound 10 μM; for inhibition at 50 µM: compound 50 μM
How it was run: as §1

[1] = test system: human peripheral blood mononuclear cells (PBMC); experiment: Human peripheral blood mononuclear cell proliferation in vitro ((3H)thymidine incorporation); conditions: Homo sapiens, PBMC, read-out: Percentage of inhibition of proliferation of stimulated PBMC; for inhibition at 10 µM: compound 10 μM; for inhibition at 50 µM: compound 50 μM
Experimental: Substances, used in in vitro experiments, were dissolved in dimethyl sulfoxide (DMSO) (Kemika, Croatia) at concentrations of 50 mM and 10 mM and were further diluted to the final concentrations of […] in 1 mL Dulbecco's modified Eagle medium (DMEM) supplemented with 1% heat inactivated fetal bovine serum (FBS), 1% glutamax, 50 U/ml penicillin, 50 μg/ml streptomycin and 2.5 μg/mL Fungizone (amphotericin B). Media and all media supplements were purchased from Gibco, Australia, except FBS that was from Sigma, USA.
Heparinized peripheral blood was obtained from healthy donors, and peripheral blood mononuclear cells (PBMC) were isolated by Histopaque 1077 (Sigma, USA) density centrifugation at 400 g for 30 minutes. Collected PBMC were centrifuged in plasma at 400 g/10 min, resuspended and washed in RPMI 1640 (Institute of Immunology, Croatia) by centrifugation.
Influence of substances at two different concentrations (50 μM and 10 μM) on proliferation of human peripheral blood mononuclear cells (PBMC) was assessed.
Heparinized peripheral blood was obtained from healthy donors, and PBMC were isolated by Histopaque 1077 (Sigma, USA) density centrifugation at 400 g for 30 minutes. 5×10^4 cells/well were cultured for 3 days in the RPMI medium as described above, in the presence (positive control) or absence (negative control) of stimulators [PHA (2.5 μg/mL) (Sigma, USA) or both PMA (10 ng/mL) (Sigma, USA) and ionomycin (500 ng/mL) (Calbiochem, USA)] and tested substances at 37° C. in 5% CO2 and 90% humidity. The cells were pulsed with 1 μCi of (^3H)thymidine (Amersham, USA) per well during the last 18 h of the cultures and were harvested on a 96-well filter (Packard Bioscience, USA) with a multiple cell harvester (Packard, USA). The incorporation of (^3H)thymidine in activated cells was measured by TopCount NXT (Packard, USA).
Inhibition of cell proliferation (as a percentage) was calculated using the following formula: % inhibition=(1−(^3H)thymidine incorporation expressed in counts per minute (cpm) in sample/(3H)thymidine incorporation expressed in cpm in positive control)×100 where “positive control” refers to stimulated samples not treated with substances.

A549 = conditions: human, 24 h
How it was run: (§2)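 MTT cytotoxicity read-out: cells were exposed to compound at 50 μM and 12.5 μM for 24 hours at 37° C in RPMI, then MTT was added for 0.5-2 hours. Formazan absorbance at 490 nm gave the percentage of viable cells relative to untreated cells.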

Hep G2 = conditions: human, 24 h
How it was run: as §2

THP-1 = conditions: human, 24 h
How it was run: as §2

CC[C@H]1OC(=O)[C@H](C)[C@@H](O[C@H]2C[C@@](C)(OC)[C@@H](O)[C@H](C)O2)[C@H](C)[C@@H](O[C@@H]2O[C@H](C)C[C@H](N(C)C)[C@H]2O)[C@](C)(OC)C[C@@H](C)C(=O)[C@H](C)[C@@H](O)[C@]1(C)O [clarithromycin, reference compound]
inhibition at 10 µM (human TNF-α; LPS stimulation): 0% | inhibition at 50 µM (human TNF-α; LPS stimulation): 0% | inhibition at 10 µM (human TNF-α; PMA stimulation): 0% | inhibition at 50 µM (human TNF-α; PMA stimulation): 0% | inhibition at 10 µM (human TNF-α; zymosan stimulation): 0% | inhibition at 50 µM (human TNF-α; zymosan stimulation): 0% | inhibition at 10 µM (human IL-1β; LPS stimulation): 0% | inhibition at 50 µM (human IL-1β; LPS stimulation): 0% | inhibition at 10 µM (human IL-1β; PMA stimulation): 26% | inhibition at 50 µM (human IL-1β; PMA stimulation): 33% | inhibition at 10 µM (human IL-1β; zymosan stimulation): 36% | inhibition at 50 µM (human IL-1β; zymosan stimulation): 59% | inhibition at 10 µM (human IL-6; LPS stimulation): 11% | inhibition at 50 µM (human IL-6; LPS stimulation): 0% | inhibition at 10 µM (human IL-6; PMA stimulation): 0% | inhibition at 50 µM (human IL-6; PMA stimulation): 0% | inhibition at 10 µM (human IL-6; zymosan stimulation): 28% | inhibition at 50 µM (human IL-6; zymosan stimulation): 0% | inhibition at 10 µM (human IL-8; LPS stimulation): 23% | inhibition at 50 µM (human IL-8; LPS stimulation): 0% | inhibition at 10 µM (human IL-8; PMA stimulation): 33% | inhibition at 50 µM (human IL-8; PMA stimulation): 0% | inhibition at 10 µM (human IL-8; zymosan stimulation): 0% | inhibition at 50 µM (human IL-8; zymosan stimulation): 0% | inhibition at 10 µM ([1]; PHA stimulation): 0% | inhibition at 50 µM ([1]; PHA stimulation): 7% | inhibition at 10 µM ([1]; PMA + ionomycin stimulation): 9% | inhibition at 50 µM ([1]; PMA + ionomycin stimulation): 14% | Percentage of viable cells after treatment (A549; 12.5 μM): 100% | Percentage of viable cells after treatment (A549; 50 μM): 100% | Percentage of viable cells after treatment (Hep G2; 12.5 μM): 100% | Percentage of viable cells after treatment (Hep G2; 50 μM): 100% | Percentage of viable cells after treatment (THP-1; 12.5 μM): 100% | Percentage of viable cells after treatment (THP-1; 50 μM): >95%

Source: US7910559B2, “Decladinosyl-macrolides with anti-inflammatory activity” (GlaxoSmithKline istrazivacki centar Zagreb d.o.o., priority 2005, dated 2011)
